Data set [1] deals with T1, 5-HT2C receptor (Homo sapiens, UniProt P28335).
T1 construct: expressed in transfected cells; host or cells: HEK293
T1 sequence (P28335 33-458): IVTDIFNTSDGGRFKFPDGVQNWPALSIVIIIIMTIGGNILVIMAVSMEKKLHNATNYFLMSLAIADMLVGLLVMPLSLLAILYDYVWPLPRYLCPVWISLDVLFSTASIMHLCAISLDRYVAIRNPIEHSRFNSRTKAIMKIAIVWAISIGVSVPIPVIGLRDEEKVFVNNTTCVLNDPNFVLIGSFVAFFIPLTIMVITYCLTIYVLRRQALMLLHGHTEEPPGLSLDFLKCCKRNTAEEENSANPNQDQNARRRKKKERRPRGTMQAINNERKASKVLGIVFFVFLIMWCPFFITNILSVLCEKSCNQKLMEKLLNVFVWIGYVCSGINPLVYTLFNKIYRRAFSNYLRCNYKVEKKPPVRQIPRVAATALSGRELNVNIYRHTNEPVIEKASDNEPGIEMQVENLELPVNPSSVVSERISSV
Kind of data set: IP accumulation assay in HEK293 cells expressing recombinant 5-HT2 receptors. The data set is classed as cell-based. Particulars: 2 h at 37° C.
Description: (§1) HEK293 cells expressing recombinant 5-HT2 receptors were added to sterile poly-D-lysine-coated 96-well microtiter plates (35,000 cells/well) and labeled with 0.6 μCi/well of [^3H]inositol in myoinositol-free DMEM for 18 h. Unincorporated [^3H]inositol was removed by aspiration and replaced with fresh myoinositol-free DMEM supplemented with LiCl (10 mM final) and pargyline (10 μM final). Serially diluted test compounds were then added and incubation was conducted for 2 h at 37° C. Incubations were then terminated by lysing cells with the addition of ice-cold 0.1 M formic acid followed by freezing at −80° C. After thawing, total [^3H]inositol phosphates were resolved from [^3H]inositol using AG1-X8 ion exchange resin (Bio-Rad) and [^3H]inositol phosphates were measured by scintillation counting using a Perkin Elmer TopCount® scintillation counter. All EC50 determinations were performed using 10 different concentrations and triplicate determinations were made at each test concentration.

Data set [2] concerns the target T2, 5-HT2A receptor (Homo sapiens, UniProt P28223).
T2 construct: expressed in transfected cells; host or cells: HEK293
Nature of the data set: Radioligand binding assay, [125I]DOI competition. Particulars: HEK293 cell membranes, read-out: DOI Binding Ki 2A.
Description: (§2) HEK293 cells stably expressing recombinant 5-HT2 receptors were harvested, suspended in ice-cold phosphate buffered saline, pH 7.4 (PBS), and then centrifuged at 48,000 g for 20 min at 4° C. The resulting cell pellet was then re-suspended in wash buffer containing 20 mM HEPES, pH 7.4 and 0.1 mM EDTA, homogenized on ice using a Brinkman Polytron, and centrifuged (48,000 g for 20 min at 4° C.). The pellet was then resuspended in 20 mM HEPES, pH 7.4, homogenized on ice, and centrifuged (48,000 g for 20 min at 4° C.). Crude membrane pellets were stored at −80° C. until used for radioligand binding assays.
(§3) Experiments comprised addition of 95 μL, of assay buffer (20 mM HEPES, pH 7.4, 10 mM MgCl2), 50 μL, of membranes, 50 μL, of radioligand stock, and 5 μL of test compound diluted in assay buffer to 96-well microtiter plates, which were then incubated for 1 h at room temperature. Assay incubations were terminated by rapid filtration through PerkinElmer F/C filtration plates under reduced pressure using a 96-well Packard filtration apparatus, followed by washing three times with ice cold assay buffer. Plates were then dried at 45° C. for a minimum of 2 h. Finally, 25 μL of BetaScint™ scintillation cocktail was added to each well and the plates were counted in a Packard TopCount® scintillation counter. […]

For a further data set, the target named is T3, 5-HT2B receptor (Homo sapiens, UniProt P41595).
T3 construct: expressed in transfected cells; host or cells: HEK293
T3 sequence (P41595 whole entry): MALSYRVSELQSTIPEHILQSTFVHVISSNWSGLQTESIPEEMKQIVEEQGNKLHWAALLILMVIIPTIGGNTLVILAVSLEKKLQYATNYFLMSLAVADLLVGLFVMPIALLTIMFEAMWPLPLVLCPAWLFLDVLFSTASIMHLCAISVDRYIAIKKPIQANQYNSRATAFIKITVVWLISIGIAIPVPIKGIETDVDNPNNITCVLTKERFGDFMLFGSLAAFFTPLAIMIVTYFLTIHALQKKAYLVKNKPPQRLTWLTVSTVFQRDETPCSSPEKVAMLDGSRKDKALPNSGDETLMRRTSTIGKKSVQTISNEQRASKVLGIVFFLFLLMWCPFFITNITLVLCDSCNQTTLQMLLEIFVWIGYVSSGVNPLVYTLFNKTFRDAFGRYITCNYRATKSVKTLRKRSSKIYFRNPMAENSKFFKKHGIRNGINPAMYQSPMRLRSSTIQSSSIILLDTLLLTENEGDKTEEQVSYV
Nature of the data set: Radioligand binding assay, [125I]DOI competition. The following applies: HEK293 cell membranes, read-out: DOI Binding Ki 2B.

Data set [3] addresses T1, 5-HT2C receptor. Kind of data set: Radioligand binding assay, [125I]DOI competition. Particulars: HEK293 cell membranes, read-out: DOI Binding Ki 2C.
Description: as §2
Radioligand binding assays were performed using the commercially available 5-HT2 receptor agonist [^125I]DOI as the radioligand and nonspecific binding was determined in the presence of unlabeled DOI at a saturating concentration of 10 μM. Competition experiments utilized 5-HT2 receptor expressing HEK293 cell membranes obtained as described in Example 3 (15-25 μg membrane protein/well) and radioligand at final assay concentrations of 0.4 to 0.6 nM. […] Finally, 25 μL of BetaScint™ scintillation cocktail was added to each well and the plates were counted in a Packard TopCount® scintillation counter. […]
Data set [4] concerns the target T2, 5-HT2A receptor. Kind of data set: IP accumulation assay in HEK293 cells expressing recombinant 5-HT2 receptors. Particulars: 2 h at 37° C. The data set is classed as cell-based.
Description: as §1
For data set [5] the following is noted: reports that led to withdrawal in 1998; cited from earlier work.
For data set [6] the following is noted: a patient with Lennox-Gastaut syndrome; cited from earlier work.
For data set [7] the following is noted: cited from earlier work.
The conditions of data set [8]: one study, patients without diabetes; cited from earlier work.
For data set [9] the following is noted: cited from earlier work. The source holds these as a separate data set.
[10] abbreviates: pivotal phase 3 program, up to two years.
Where [11] appears, read: top quartile of patients, second phase 3 trial.

T2 sequence (P28223 whole entry): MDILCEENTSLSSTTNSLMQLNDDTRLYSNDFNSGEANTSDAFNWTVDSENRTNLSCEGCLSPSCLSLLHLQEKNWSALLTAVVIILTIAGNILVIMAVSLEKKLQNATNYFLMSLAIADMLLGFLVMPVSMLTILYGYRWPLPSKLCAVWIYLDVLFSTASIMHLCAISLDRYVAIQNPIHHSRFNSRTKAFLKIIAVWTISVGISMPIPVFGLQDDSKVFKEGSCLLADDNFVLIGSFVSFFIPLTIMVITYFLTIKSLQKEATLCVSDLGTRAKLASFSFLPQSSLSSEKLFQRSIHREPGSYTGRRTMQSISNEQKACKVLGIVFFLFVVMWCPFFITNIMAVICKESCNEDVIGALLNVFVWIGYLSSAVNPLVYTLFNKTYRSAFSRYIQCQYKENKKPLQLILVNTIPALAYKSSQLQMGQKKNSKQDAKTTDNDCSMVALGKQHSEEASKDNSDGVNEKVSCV
Description for 5-HT2B receptor: as §2, §3

As usually defined, the EC50 is the concentration that produces a half-maximal response. With `CCC1CN2CCNCc3ccc(C(=O)NCC(F)F)c1c32` (single isomer, unassigned) [1st eluting enantiomer in example 1.5, N-(2,2-difluoroethyl)-7-ethyl-1,2,3,4,6,7-hexahydro-[1,4]diazepino[6,7,1-hi]indole-8-carboxamide], the concentration giving a half-maximal response (EC50) at 5-HT2C receptor [1] was found to be 15200 nM.
For orientation: Ki means a measure of affinity in units of concentration, obtained from inhibition or displacement. With `CCC1CN2CCNCc3ccc(C(=O)NCC(F)F)c1c32` (single isomer, unassigned) [2nd eluting enantiomer in example 1.5, N-(2,2-difluoroethyl)-7-ethyl-1,2,3,4,6,7-hexahydro-[1,4]diazepino[6,7,1-hi]indole-8-carboxamide], the figures for the Ki on 5-HT2A receptor [2], on 5-HT2B receptor and on 5-HT2C receptor [3] were 6580 nM, 92300 nM and 19.7 nM, respectively. In addition, at 5-HT2C receptor [1], the EC50 was found to be 7.09 nM.
As to `CC1(C)CN2CCNCc3ccc(C(=O)NCC(F)F)c1c32` [Compound 6, N-(2,2-difluoroethyl)-7,7-dimethyl-1,2,3,4,6,7-hexahydro-[1,4]diazepino[6,7,1-hi]indole-8-carboxamide], at 5-HT2C receptor [1], the EC50 is 195 nM.
For the compound `O=C(NCC(F)F)c1ccc2c3c1C1(CCC1)CN3CCNC2` [Compound 7, N-(2,2-difluoroethyl)-2,3,4,6-tetrahydro-1H-spiro[[1,4]diazepino[6,7,1-hi]indole-7,1′-cyclobutane]-8-carboxamide], the inhibition constant Ki on 5-HT2A receptor [2] turned out to be 6750 nM; on 5-HT2B receptor, 6810 nM; on 5-HT2C receptor [3], 36.6 nM. Moreover, the EC50 was 17.7 nM at 5-HT2C receptor [1] and 160 nM at 5-HT2A receptor [4].
`CCN[C@@H](C)Cc1cccc(C(F)(F)F)c1` [d-fenfluramine]: the “patients with reported cardiac valve defects” value in data set [5] is “up to one third”.
Regarding `CCNC(C)Cc1cccc(C(F)(F)F)c1` (stereo not drawn) [fenfluramine], the “reduction in seizure frequency during treatment” value in [6] was “two-thirds”.
Consider `C[C@H]1CNCCc2ccc(Cl)cc21` [lorcaserin, (R)-8-chloro-1-methyl-2,3,4,5-tetrahydro-1H-3-benzazepine], for which, in data set [7] (10 mg BID, type 2 diabetes), the “reduction in HbA1c” value was 0.9%. Moreover, in data set [7] (patients with type 2 diabetes), the “decrease of mean daily doses of sulfonylureas and thiazolidinediones” value was 16-24%. Also, in data set [8], the “insulin resistance (HOMA-IR) change” value is reported as −0.4. The “excess body weight lost” value in data set [9] (first phase 3 trial, based on a normal BMI of 25) is listed as “about one-third”. In [9] (setting [10]), the “patients who achieved at least 5% weight loss” value is “About two-thirds” and the “patients who achieved at least 10% weight loss” value was “over one-third”. Besides, in [9] (setting [11]), the average weight loss is 35 pounds and the “average weight loss, of body weight” value is 16%.
